The results in this text go back to patent publication US20220204473A1, “COMPOUND AS IRAK INHIBITOR” (SHANGHAI MEIYUE BIOTECH DEVELOPMENT CO., LTD., priority 2018, published 2022).

For series [1], the system named is cytokine TNF-α in LPS-induced human PBMCs. Nature of the series: Inhibition of cytokine TNF-α in LPS-induced human PBMC (ELISA). It is filed as cell-based. Conditions: 0.1 μg/mL LPS for 4 h. How it is done: Procedures: Cytokine production in human PBMCs (peripheral blood mononuclear cells) was induced by LPS (lipopolysaccharide) in vitro, and the inhibitory effect of the compounds on induced cytokine production in human PBMCs was investigated.
Fresh human PBMC was centrifuged for 10 min at room temperature at 450×g and the supernatant was discarded. The PBMC was resuspended in complete RPMI 1640 medium.
The assay was performed in complete medium. PBMC was seeded at a density of 1×10^5 cells/well into a 96-well plate. The compounds according to the present disclosure were serially diluted in an isotonic 100% DMSO solution to 8 concentrations from 20 μM to 0.002 nM respectively, with the final DMSO concentration being 0.25%. Cells were pre-incubated with the formulated compounds for 30 min at 37° C. prior to stimulation. To induce cytokine secretion, cells were stimulated with 0.1 μg/mL LPS (Sigma, Escherichia coli O111:B4) for 4 h at 37° C. The cell culture supernatant was then separated by centrifugation at 450×g for 10 min at room temperature.
The amount of secreted TNF-α in the supernatants was determined using the human TNF-α ELISA kit according to the manufacturer's instruction.
The readings of absorbance at A450 were measured with a microplate reader SpectraMax i3x (Molecular Device) for calculating the inhibition of the compounds, and IC50 values were calculated with GraphPad Prism 7.0 software respectively.
On the technique in general: In an ELISA, binding on a coated surface is turned into a signal by an enzyme label.

Series [2] in a line: PK assay in rat (intravenous injection and oral gavage). It is filed as in vivo. Particulars: plasma, male SD rat; for Cmax: read-out: Peak concentration Cmax; for AUC(0-t): read-out: Area under curve AUC0-t; for AUC(0-inf): read-out: Area under curve AUC0-∞; for MRT: read-out: Average retention time MRT; for clearance: read-out: Clearance CL; for half-life: read-out: Half life t1/2 (converted); for Vd: read-out: Volume of distribution at steady state VZ; for bioavailability: read-out: Bioavailability F; for Tmax: read-out: Time to peak tmax. As to the method:
The rats used for pharmacokinetic study in the example were male SPF-grade SD rats (B&K Universal, Shanghai).
Route of administration: a single dose by oral gavage or intravenous injection
Sampling points: 0.083 h, 0.25 h, 0.5 h, 1 h, 2 h, 4 h, 6 h, 8 h and 24 h after administration
Sample processing: 0.2 mL of venous blood was collected, and let stand on ice before centrifugation to separate plasma (centrifugation conditions: 8000 rpm, 6 min, 4° C.). The separated plasma was stored at −80° C. before analysis.
Internal standard working solution: An appropriate amount of tolbutamide internal standard stock solution at 645,000 ng/mL was added into a volumetric flask, and was diluted to the volume with methanol. The solution was well mixed to give an internal standard working solution with a concentration of 50 ng/mL.
Sample pretreatment: 50 μL of plasma was added into a 1.5-mL centrifuge tube, and added with 250 μL of internal standard solution (methanol of the same volume for the blank control). The solution was well mixed by vortex, and centrifuged for 5 min at 14000 rpm. 200 μL of the supernatant was transferred into a 96-well sample feeding plate, and loaded onto a LC-MS/MS system.
Column: ACQUITY UPLC BEH C18 1.7 μm (50 mm×2.10 mm)
Mobile phase: A: 0.1% aqueous formic acid; B: 0.1% formic acid in acetonitrile
The data processing system was Analyst software (Applied Biosystems, USA, ver 1.5.5).

The next series deals with T1, CYP3A4 (Homo sapiens, UniProt P08684).
T1 construct: tissue Corning (USA); host or cells: mixed human liver microsomes
T1 sequence (P08684 whole entry): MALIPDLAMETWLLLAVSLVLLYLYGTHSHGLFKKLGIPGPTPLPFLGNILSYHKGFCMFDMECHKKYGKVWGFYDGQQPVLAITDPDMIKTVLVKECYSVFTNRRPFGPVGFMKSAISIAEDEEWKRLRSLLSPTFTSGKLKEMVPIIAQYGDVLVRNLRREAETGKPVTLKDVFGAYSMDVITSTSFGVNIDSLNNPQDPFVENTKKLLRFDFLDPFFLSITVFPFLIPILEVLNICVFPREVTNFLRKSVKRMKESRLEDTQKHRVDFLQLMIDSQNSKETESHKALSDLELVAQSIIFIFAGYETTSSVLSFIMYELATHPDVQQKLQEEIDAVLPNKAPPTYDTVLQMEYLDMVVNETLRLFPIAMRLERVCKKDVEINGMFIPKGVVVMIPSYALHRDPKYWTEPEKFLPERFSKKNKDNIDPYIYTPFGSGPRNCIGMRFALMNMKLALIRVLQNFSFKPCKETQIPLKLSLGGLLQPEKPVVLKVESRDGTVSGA
Description: CYP450 inhibition in human liver microsomes, CYP3A4. In kind it is in vitro ADME. Particulars: human liver microsomes, probe midazolam; read-out: IC50, subtype 3A4. How it is done:
(§1) This study was intended to investigate the inhibitory effect of the test compounds on five major CYP450 enzyme subtypes CYP1A2, 2C9, 2C19, 2D6 and 3A4 in human liver microsomes. The mixed human liver microsomes used in this assay were purchased from Corning (USA). The test compounds were co-incubated at 7 concentrations with human liver microsomes and five probe substrates (phenacetin for CYP1a2, diclofenac for CYP2C9, mephenytoin for CYP2C19, dextromethorphan for CYP2D6, midazolam for CYP3A4-M, mixed). The reaction was initiated by adding coenzyme NADPH, and terminated by adding acetonitrile containing internal standard. After the proteins were precipitated, the supernatant was centrifuged. The characteristic metabolites in the supernatant (acetaminophen for CYP1A2, 4-hydroxydiclofenac for CYP2C9, 4-hydroxymephenytoin for CYP2C19, dextrorphan for CYP2D6, 1-hydroxymidazolam for CYP3A4-M) were analyzed by LC-MS/MS. The influence of the test compounds on production of the characteristic metabolites was finally analyzed on the basis of the data obtained. A selective inhibitor (ketoconazole for CYP3A4-M) was used as positive control. All samples were tested in duplicate.
(Liver microsomes are vesicles of endoplasmic reticulum, rich in cytochrome P450 enzymes.)

The next series deals with T2, CYP2C19 (Homo sapiens, UniProt P33261).
T2 construct: tissue Corning (USA); host or cells: mixed human liver microsomes
T2 sequence (P33261 whole entry): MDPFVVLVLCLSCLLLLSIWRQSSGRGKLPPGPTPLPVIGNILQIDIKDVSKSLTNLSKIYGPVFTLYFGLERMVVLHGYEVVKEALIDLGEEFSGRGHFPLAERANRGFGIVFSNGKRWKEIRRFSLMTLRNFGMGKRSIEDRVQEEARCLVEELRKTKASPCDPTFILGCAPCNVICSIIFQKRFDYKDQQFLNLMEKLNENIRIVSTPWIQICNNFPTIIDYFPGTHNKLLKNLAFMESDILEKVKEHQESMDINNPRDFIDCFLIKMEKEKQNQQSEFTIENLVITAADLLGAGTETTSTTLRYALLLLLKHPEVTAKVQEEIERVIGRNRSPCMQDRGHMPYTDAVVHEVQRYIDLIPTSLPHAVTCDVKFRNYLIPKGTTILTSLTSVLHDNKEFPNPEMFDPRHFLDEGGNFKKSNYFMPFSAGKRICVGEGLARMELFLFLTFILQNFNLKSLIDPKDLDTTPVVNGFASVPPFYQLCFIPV
Nature of the series: CYP450 inhibition in human liver microsomes, CYP2C19. It is filed as in vitro ADME. Conditions: human liver microsomes, probe mephenytoin; read-out: IC50, subtype 2C19. As to the method: as §1

A further series has as its target T3, CYP2C9 (Homo sapiens, UniProt P11712).
T3 construct: tissue Corning (USA); host or cells: mixed human liver microsomes
Description: CYP450 inhibition in human liver microsomes, CYP2C9. It is filed as in vitro ADME. Particulars: human liver microsomes, probe diclofenac; read-out: IC50, subtype 2C9. How it is done:
as §1

The subject of series [3] is Salmonella typhimurium TA98 and TA100. Description: Mini-Ames assay in Salmonella typhimurium. Particulars: TA98 and TA100, with or without S9 mixture. (In general: The Ames test uses bacterial strains that need an amino acid and regain growth without it when mutated back.)
Description: S9 homogenate: β-napthoflavone and phenobarbital induced rat liver microsome homogenate S9 fraction was used as the metabolic activation system for this assay. S9 was purchased from CHI Scientific, Inc. and stored in a freezer at −75° C. before use.
S9 mixture and mock mixture: S9 was quickly thawed to prepare a liquid mixture before the assay. 0.2 M PBS phosphate buffer (pH 7.4) was used as the mock mixture.
The overnight bacterial cultures were prepared from a stock of the strains. 80 μL of the stock was added to 20 mL of broth. For strains TA98 and TA100, 62.5 μL of ampicillin at a concentration of 0.8% were added per 10 mL of broth #2. The inoculated broth was then incubated on a thermostatic shaker overnight at 37° C. with a rotation speed of 160±10 rpm. The overnight cultures over the target absorbance were stored at 2-8° C. before use. The overnight cultures were used for genotyping and mutation tests.
The experimental system was exposed to the test compounds on plates in plate incorporation assay (Ames et al., 1975; N. Flamand et al., 2000).
[4] abbreviates: 1 mg/kg, intravenous injection, 1 mpk, 5% DMSO + 15% Solutol + 80% Saline.
Where [5] appears, read: 1 mg/kg, intravenous injection, 1 mpk.
Setting [6] is: 2 mg/kg, oral administration, 2 mpk, 5% DMSO + 15% Solutol + 80% Saline.
Where [7] appears, read: 5 mg/kg, oral administration, 5 mpk, 15% solutol HS15 + 85% PBS.

Read-outs that look alike come from different tables or passages of the source.

For orientation: IC50 means the concentration needed to halve the response being measured. The MRT is a mean duration of stay, worked out from the concentration-time curve. The term bioavailability denotes the share of a dose that reaches the circulation, judged against a reference dose that is usually intravenous. Usually Tmax stands for the time at which the peak concentration occurs.

T3 sequence (P11712 whole entry): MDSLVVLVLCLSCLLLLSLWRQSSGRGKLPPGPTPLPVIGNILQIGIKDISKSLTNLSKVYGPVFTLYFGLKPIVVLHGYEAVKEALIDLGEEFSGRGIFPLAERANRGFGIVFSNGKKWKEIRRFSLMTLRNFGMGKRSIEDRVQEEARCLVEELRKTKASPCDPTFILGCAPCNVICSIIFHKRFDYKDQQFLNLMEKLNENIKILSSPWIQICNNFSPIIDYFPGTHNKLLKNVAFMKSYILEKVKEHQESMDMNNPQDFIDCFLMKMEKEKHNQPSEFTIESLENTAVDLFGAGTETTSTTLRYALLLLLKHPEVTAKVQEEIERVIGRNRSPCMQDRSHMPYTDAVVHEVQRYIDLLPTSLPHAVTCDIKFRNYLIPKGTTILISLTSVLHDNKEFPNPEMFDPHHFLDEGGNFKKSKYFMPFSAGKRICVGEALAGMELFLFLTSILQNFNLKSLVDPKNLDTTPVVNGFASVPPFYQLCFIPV

The compound `CN(C)c1cc2nn([C@H]3C[C@H](C(C)(C)O)C3)cc2cc1NC(=O)c1cccc(C(F)(F)F)n1` [MY-004-089] displayed an IC50 in series [1] of 165 nM. Besides, the Cmax in series [2] (setting [4]) is 1.58 µg/mL. Also, in series [2] (setting [5]), the AUC(0-t) was 3.39 µg·h/mL, the AUC(0-inf) came out at 3.51 µg·h/mL, the MRT worked out at 5.2 h and the clearance turned out to be 0.293 L/h/kg. Besides, in series [2] (setting [5]), the half-life is 5.5 h and the Vd was found to be 2.26 L/kg. In series [2] (setting [6]), the AUC(0-t) amounted to 3 µg·h/mL, the AUC(0-inf) worked out at 3.55 µg·h/mL, the MRT is 12.6 h and the bioavailability was determined as 44.2%. Moreover, in series [2] (setting [6]), the half-life was 8.11 h, the Cmax is 0.227 µg/mL and the Tmax is 4 h.
On to `COc1cc2nn([C@H]3CC[C@](C)(O)CC3)cc2cc1NC(=O)c1cccc(C(F)(F)F)n1` [MY-004-126-1], for which the midpoint of inhibition in series [1], the IC50, lay at 71.8 nM. Also, the IC50 at CYP3A4 was greater than 30 µM. Besides, the IC50 at CYP2C19 is greater than 30 µM. In series [2] (setting [4]), the Cmax is 1.21 µg/mL. Further, in series [2] (setting [5]), the AUC(0-t) amounted to 3.15 µg·h/mL, the AUC(0-inf) is 3.25 µg·h/mL, the MRT worked out at 5.46 h and the clearance amounted to 0.308 L/h/kg. Also, in series [2] (setting [5]), the half-life is 5.25 h and the Vd came out at 2.34 L/kg. Further, in series [2] (setting [7]), the AUC(0-t) was determined as 11.5 µg·h/mL, the AUC(0-inf) is 17.7 µg·h/mL, the MRT is 22.4 h and the bioavailability stood at 73.1%. Further, in series [2] (setting [7]), the half-life was 15.2 h, the Cmax turned out to be 0.924 µg/mL and the Tmax came out at 4 h. For the same compound, the IC50 at CYP2C9 is greater than 30 µM.
Turning to `COc1cc2nn([C@H]3CC[C@@](C)(O)CC3)cc2cc1NC(=O)c1cccc(C(F)(F)F)n1` [MY-004-126-2], the Mini-Ames result in series [3] was “negative”. In addition, the Cmax in series [2] (setting [4]) came out at 1.43 µg/mL. In addition, in series [2] (setting [5]), the AUC(0-t) worked out at 4.08 µg·h/mL, the AUC(0-inf) stood at 4.54 µg·h/mL, the mean residence time MRT was determined as 8.81 h and the clearance came to 0.224 L/h/kg. In series [2] (setting [5]), the half-life was 7.59 h and the Vd came out at 2.4 L/kg. Moreover, in series [2] (setting [7]), the AUC(0-t) was 15.4 µg·h/mL, the AUC(0-inf) is 35.9 µg·h/mL, the MRT came to 10.3 h and the bioavailability was found to be 75.8%. For the same compound, in series [2] (setting [7]), the half-life was 24.8 h, the Cmax was 1.15 µg/mL and the Tmax is 4 h.
`COc1cc2nn([C@H]3CC[C@H](O)CC3)cc2cc1NC(=O)c1cccc(C(F)(F)F)n1` [MY-004-127-1]: the Mini-Ames result in series [3] is given as “negative”. The IC50 at CYP3A4 was greater than 30 µM. Moreover, on CYP2C19, the IC50 was greater than 30 µM. Further, the Cmax in series [2] (setting [4]) worked out at 1.42 µg/mL. In addition, in series [2] (setting [5]), the AUC(0-t) is 5.53 µg·h/mL, the AUC(0-inf) was determined as 5.88 µg·h/mL, the MRT amounted to 7.54 h and the clearance came out at 0.17 L/h/kg. In addition, in series [2] (setting [5]), the half-life is 6.29 h and the Vd was found to be 1.55 L/kg. Further, in series [2] (setting [7]), the AUC(0-t) came to 18.4 µg·h/mL, the AUC(0-inf) turned out to be 22.5 µg·h/mL, the MRT amounted to 9.16 h and the bioavailability amounted to 66.5%. Moreover, in series [2] (setting [7]), the half-life is 8.84 h, the Cmax was 1.48 µg/mL and the Tmax is 4.67 h. Moreover, the IC50 on CYP2C9 was greater than 30 µM.
For the compound `CN(C)c1cc2nn([C@H]3CC[C@H](O)CC3)cc2cc1NC(=O)c1cccc(C(F)(F)F)n1` [MY-004-153], in series [1], the half-inhibitory concentration (IC50) is 191 nM.
In the case of `CC(C)(O)c1cc2nn([C@H]3CC[C@](C)(O)CC3)cc2cc1NC(=O)c1cccc(C(C)(F)F)n1` [MY-004-165], the IC50 at CYP3A4 is greater than 30 µM; at CYP2C19, greater than 30 µM; on CYP2C9 it was 20.9 µM.
